Results published in patent US20120149708A1, “MODULATORS OF VIRAL TRANSCRIPTION, AND METHODS AND COMPOSITIONS THEREWITH” (George Mason University, priority 2010, published 2012).

Columns and labels:
Assay type in all cases: cell-based
[1] = test system: ACH2 cells (HIV-1 infected); test: Cell viability by trypan blue exclusion, 48 hours; settings: HIV-1 infected
Procedure: (§1) TZM-bl cell lines were grown in Dulbecco's modified Eagle's medium supplemented with fetal bovine serum (FBS) (10%, v/v), 2 mM L-glutamine, and antibiotics (penicillin 100 U/ml, streptomycin […]) (cDMEM). HCT116 WT and HCT116 Dicer−/−cell lines were grown in McCoy's medium supplemented with FBS (10%, v/v), 2mM L-glutamine, and antibiotics (penicillin 100 U/ml, streptomycin […]). CEM, ACH2, Jurkat and U937 cells were grown in RPMI 1640 supplemented with FBS, L-glutamine, and antibiotics (penicillin 100 U/ml, streptomycin […]). All cell lines were maintained at 37° C. in 5% (v/v) CO2. […]
(§2) In brief, the inhibition studies were carried out as follows. HIV-1 infected cells ACH2, J1.1, OM10.1, U1 and uninfected CEM, Jurkat T-cells, and U937 were cultured in media. The appropriate inhibitor was added at a concentration of 10 μM. Cells were treated for 48 hours and cell viability was determined using trypan blue exclusion method. Results of such a screen for 19 inhibitors is shown in Table 1 where percent dead cells are indicated each drug tested.
(§3) Again HIV-1 infected and uninfected cells were treated with eighteen Formula I compounds at a drug concentration of 50 nm. Forty-eight hours after treatment, cytotoxicity was determined by trypan blue dye exclusion. Percent inhibition was calculated after obtaining the cell density for each well of the tissue culture plate at the end of 48 hrs.

[2] = test system: Jurkat T-cells (uninfected); test: Cell viability by trypan blue exclusion, 48 hours
Procedure: as §1, §2, §3

[3] = test system: J1.1 cells (HIV-1 infected); test: Cell viability by trypan blue exclusion, 48 hours
Procedure: as §2, §3

[4] = test system: OM10.1 cells (HIV-1 infected); test: Cell viability by trypan blue exclusion, 48 hours
Procedure: as §2, §3

[5] = test system: U1 cells (HIV-1 infected); test: Cell viability by trypan blue exclusion, 48 hours
Procedure: as §2, §3

CEM cells (uninfected) = test: Cell viability by trypan blue exclusion, 48 hours
Procedure: (§4) TZM-bl cell lines were grown in Dulbecco's modified Eagle's medium supplemented with fetal bovine serum (FBS) (10%, v/v), 2 mM L-glutamine, and antibiotics (penicillin 100 U/ml, streptomycin […]) (cDMEM). HCT116 WT and HCT116 Dicer−/−cell lines were grown in McCoy's medium supplemented with FBS (10%, v/v), 2mM L-glutamine, and antibiotics (penicillin 100 U/ml, streptomycin […]). CEM, ACH2, Jurkat and U937 cells were grown in RPMI 1640 supplemented with FBS, L-glutamine, and antibiotics (penicillin 100 U/ml, streptomycin […]). All cell lines were maintained at 37° C. in 5% (v/v) CO2.
(§5) ACH2 cells are infected with HIV-1; TZM-bl cells contain a stably-integrated HIV-1 LTR-Luciferase reporter; CEM, Jurkat, and U937 cells are uninfected. Transfections were carried out using Attractene (Qiagen) lipid reagent. Cells were cultured to confluence and pelleted at 4° C. for 15 min at 3,000 rpm. The cell pellets were washed twice with 25 ml of phosphate-buffered saline (PBS) with Ca2+ and Mg2+ (Quality Biological) and centrifuged once more. Cell pellets were resuspended in lysis buffer (50 mM Tris-HCl, pH 7.5, 120 mM NaCl, 5 mM EDTA, 0.5%, v/v, NP-40, 50 mM NaF, 0.2 mM Na3VO4, 1 mM DTT, one complete protease cocktail tablet/50 ml (Roche) and incubated on ice for 20 min, with gentle vortexing every 5 min. Cell lysates were transferred to eppendorf tubes and were centrifuged at 10,000 rpm for 10 min. Supernatants were transferred to a fresh tube where protein concentrations were determined using Bio-Rad protein assay (Bio-Rad, Hercules, Calif.).
as §2, §3

U937 cells (uninfected) = test: Cell viability by trypan blue exclusion, 48 hours
Procedure: as §4, §5, §2, §3

[6] = test system: HIV-1 infected and uninfected cells; test: Classification of inhibitors by effect on viability of infected versus uninfected cells; settings: high
Excerpt: The inhibitors were classified into three categories: high, moderate or poor, according to their effect on cellular viability in both HIV-1 infected and uninfected cells. Among the compounds tested in this study, CR8, a purine analog bearing a 2-pyridyl group para to the phenyl ring position 6 of the purine was the most promising drug candidate that killed HIV-1 infected cells, while having little or no effect on the death of uninfected cells.

[7] = test system: HIV-1 (pNL4.3) in Jurkat T-cells; test: Reverse transcriptase assay of supernatants, pNL4.3 electroporated cells; settings: Flavopiridol 200 nm, CR8 100 nm, CR8#13 50 nm, 48 hours
Procedure: (§6) Jurkat T-cell and promonocytic U937 cells were electroporated with 5 μg pNL4.3 followed the next day by drug treatment of Flavopiridol (200 nm), CR8 (100 nm) or CR8#13 (50 nm). Cell supernatants were collected at 48 hours post drug treatment. Viral supernatants (10 μl) were incubated in a 96-well plate with reverse transcriptase (RT) reaction mixture overnight at 37° C., and 10 μl of the reaction mix was spotted on a DEAE Filtermat paper, washed with 5% (w/v) Na2HPO4 followed by water wash, and then dried completely. RT activity was measured in a Betaplate counter.
(§7) For electroporations, Jurkat and U937 cells were resuspended at 3 million cells in 250 μl of RPMI. Five microgram of pNL4-3 was then added to the cell suspension. Cells were pulsed a single time at 210V, 800 μF, and low resistance. Electroporated cells were immediately transferred to RPMI-1640 with L-glutamine and Penicillin/Streptomycin with 10% (v/v) FBS and plated in 6 well plates. Twenty four hours-post electroporation, cells were treated with drugs for additional 48 hrs and harvested for RT analysis. RT assays were performed as described in ((Guendel et al. 2009; Easley et al. 2010).
(§8) The present inventors examined whether Formula I, or Formula II compounds were effective inhibiting viral transcription in cell lines infected with an HIV-1 construct. Thus, Jurkat T-cells and promonocytic U937 cells were transfected with pNL4.3 and then treated with Flavopiridol, CR8 and CR8#13. Similar to monocytes, the Dicer levels are low to undetectable in promonocytic cells (FIG. 6) and was detectable only when these cells had differentiated into macrophages with PMA treatment.
(§9) Following drug treatment cell supernatants were collected and processed for exogenous reverse transcriptase (RT) levels.

[8] = test system: HIV-1 (pNL4.3) in promonocytic U937 cells; test: as above; settings: Flavopiridol 200 nm, CR8 100 nm, CR8#13 50 nm, 48 hours
Procedure: as §6, §7, §8, §9

| Compound | Inhibition Percentage ACH2 ([1]; 50 nM, 48 hrs) | Inhibition Percentage Jurkat ([2]; 50 nM, 48 hrs) | Inhibition Percentage J1.1 ([3]; 50 nM, 48 hrs, HIV-1 infected) | Inhibition Percentage OM10.1 ([4]; 50 nM, 48 hrs, HIV-1 infected) | Inhibition Percentage U1 ([5]; 50 nM, 48 hrs, HIV-1 infected) | Inhibition Percentage CEM (CEM cells (uninfected); 50 nM, 48 hrs) | Inhibition Percentage U937 (U937 cells (uninfected); 50 nM, 48 hrs) | Selectivity ([6]; 50 nM, moderate or poor) | RT levels in supernatant [7] | RT levels in supernatant [8] | inhibition at 10 µM ([1]; Human immunodeficiency virus 1, ACH-2, 48 h, 10 μM, 48 hours, read-out: % Inhibition (percent dead cells) ACH2) [%] | inhibition at 10 µM ([2]; Homo sapiens, Jurkat, 10 μM, 48 hours, read-out: % Inhibition (percent dead cells) Jurkat) [%] | inhibition at 10 µM ([3]; Human immunodeficiency virus 1, 48 h, read-out: % Inhibition (percent dead cells) J1.1) [%] | inhibition at 10 µM ([4]; Human immunodeficiency virus 1, 48 h, read-out: % Inhibition (percent dead cells) OM10.1) [%] | inhibition at 10 µM ([5]; Human immunodeficiency virus 1, 48 h, read-out: % Inhibition (percent dead cells) U1) [%] | inhibition at 10 µM (CEM cells (uninfected); Homo sapiens, CCRF-CEM, 48 h, 10 μM, 48 hours, read-out: % Inhibition (percent dead cells) CEM) [%] | inhibition at 10 µM (U937 cells (uninfected); Homo sapiens, U-937, 10 μM, 48 hours, read-out: % Inhibition (percent dead cells) U937) [%] | Selectivity ([6]; 10 μM, moderate or poor by effect on viability of infected and uninfected cells) |
| --- | --- | --- | --- | --- | --- | --- | --- | --- | --- | --- | --- | --- | --- | --- | --- | --- | --- | --- |
| CC(C)c1cnn2c(NCc3ccc(-c4ccccn4)cc3)nc(NC[C@H](O)CO)nc12.O=C(O)/C=C/C(=O)O [BJFP1154] | − (1-5%) | − (1-5%) | − (1-5%) | − (1-5%) | − (1-5%) | − (1-5%) | − (1-5%) | Poor | effective at decreasing RT levels | not U937 monocytic cells |  |  |  |  |  |  |  |  |
| CC[C@@H](CO)Nc1nc(NCc2ccc(-c3ccccn3)cc2)c2ncn(C(C)C)c2n1 [CR8] |  |  |  |  |  |  |  |  | effective at decreasing RT levels | not U937 monocytic cells | 90 | 50 | 75 | 75 | 90 | 25 | 50 | High |
